Measured values reported in patent US20120172329A1, “PHYTOCHEMICAL COMPOSITIONS INCLUDING XANTHONES FOR ANTI-INFLAMMATORY, ANTI-CYTOKINE STORM, AND OTHER USES” (Thailand Excellence Center for Tissue Engineering, priority 2009, published 2012).

Tests used:
Assay type in all cases: cell-based
[1] = tested on: lipopolysaccharide (LPS) induced synovial fibroblast (SF) cells; test: IL-1 gene expression relative to GAPDH in LPS induced synovial fibroblast cells incubated with sesamin (RT-PCR), Example Five
Protocol: Experiments were conducted to evaluate the effect of particular phytochemical compositions provided by the present disclosure on IL-1 gene expression in specified cells found within a body of a living organism. The cells used for the experiment described in […] are lipopolysaccharide (LPS) induced synovial fibroblast (SF) cells. The SF cells were isolated from synovium tissue (also referred to as synovial tissue) using a standard cell isolation technique or method that is known to a person of ordinary skill in the art. In addition, LPS is obtained from a commercial source, for example Sigma-Aldrich Co. It is understood by a person having ordinary skill in the art that the SF cells may be substituted with other immune cells found within the body, for example lymphocytes, monocytes, and macrophages. […]
The amount or level of IL-1 gene expression in the SF cells was measured or determined using methods or techniques known to a person having ordinary skill in the relevant art. In example five, Real-Time PCR (RT-PCR) was used for quantifying the amount of IL-1 gene expression in the SF cells. IL-1beta or IL-1β specific primers were used during RT-PCR, thereby facilitating or effectuating the quantification of IL-1β gene expression in the SF cells. […]

[2] = tested on: LPS induced peripheral blood mononuclear cells (PBMCs); test: IL-1 released by LPS induced PBMCs incubated with sesamin (ELISA), Example Six
Protocol: (§1) Experiments were conducted to evaluate the effect of particular phytochemical compositions provided by the present disclosure on quantity of IL-1 released by specified cells found within a body of a living organism. Cells used for the experiment described in this example are LPS induced peripheral blood mononuclear cells (PBMCs). It is understood by a person having ordinary skill in the art that the PBMCs may be substituted for other immune cells found within the body. It is also understood by a person having ordinary skill in the art that other inducing substances or chemicals besides LPS, for example viral antigens, may also be used for inducing the PBMCs.
(§2) To conduct the experiments of example six, PBMCs were isolated and prepared using methods or techniques known to a person having ordinary skill in the art. An exemplary method or techniques is the differential density gradient centrifugation technique, the steps or process steps of which is known to a person of ordinary skill in the art. In addition, LPS can be obtained from a commercial source, for example Sigma-Aldrich Co.
The PBMCs are cultured in 10% fetal calf serum in RPMI1640 medium. Seven cultures of PBMCs, i.e. culture 1 to culture 7, were prepared. The contents of each of cultures 1 to 7 were as follows:
(i) Culture 1: First control culture. Includes a predetermined volume of PBMCs (1×10^5 PBMCs/culture);
(ii) Culture 2: Second control culture. Includes the predetermined volume of PBMCs (1×10^5 PBMCs/culture) and LPS at a concentration of 20 ng/ml;
(iii) Culture 3: Includes the predetermined volume of the specified concentration of PBMCs, LPS at a concentration of 20 ng/ml, and a volume of phytochemical composition providing 0.1 uM of sesamin; […]
After a predetermined time period, quantity of IL-1 in each of cultures 1 to 7 was quantified using the ELISA technique (e.g., Biotrak Easy ELISA Aersham). The quantity of IL-1 detected by the ELISA technique in each of cultures 1 to 7 reflects the quantity of IL-1 released by the PBMCs of that culture.

[3] = tested on: LPS induced peripheral blood mononuclear cells (PBMCs); test: IL-2 gene expression relative to GAPDH in LPS induced PBMCs incubated with sesamin (RT-PCR), Example Seven; conditions: culture 4, 1.0 ug/ml of sesamin; greatest increase
Protocol: as §1, with “IL-2 gene expression in” for “quantity of IL-1 released by”
as §2, with “seven,” for “six,”, “Co. […]” for “Co.”
The amount or level of IL-2 gene expression in the PBMCs was measured or determined using methods or techniques known to a person having ordinary skill in the relevant art. In example three, Real-Time PCR (RT-PCR) was used for quantifying the amount of IL-2 gene expression in the PBMCs.

c1cc2c(cc1[C@H]1OC[C@H]3[C@@H]1CO[C@@H]3c1ccc3c(c1)OCO3)OCO2 [sesamin]
IL-1 gene expression relative to GAPDH decreased ([1]; culture 4, 0.025 mM sesamin, vs control culture 3, minimal decrease): approximately 20%
IL-1 gene expression relative to GAPDH decreased ([1]; culture 9, 1.0 mM sesamin, vs control culture 2, maximal decrease): approximately 65%
decrease in quantity of IL-1 ([2]; culture 3, 0.1 uM sesamin, vs control culture 1, minimum decrease): approximately 5%
decrease in quantity of IL-1 ([2]; culture 4, 0.5 uM sesamin, vs control culture 1, minimum decrease): approximately 5%
decrease in quantity of IL-1 ([2]; culture 7, 10 uM sesamin, vs control culture 2, maximum decrease): approximately 35%
increase in IL-2 gene expression relative GAPDH [3]: approximately 220%
